Here are results for three compounds from patent US20230002375A1, “HYDROPYRAZINO[1,2-B]ISOQUINOLINE COMPOUNDS FOR THE TREATMENT OF AUTOIMMUNE DISEASE” (Hoffmann-La Roche Inc., priority 2019, published 2023).

A value given as a limit tells only on which side of the number the result lay.

The data set addresses T1, hERG K+ channel (Homo sapiens, UniProt Q12809).
T1 construct: expressed in transfected cells; host or cells: CHO (Chinese hamster ovary) cells, CHOhERG
The experiment in a line: hERG channel inhibition assay (patch-clamp, CHOhERG cells). In kind it is cell-based. The conditions noted are these: whole-cell patch-clamp; for IC20: human, CHO cells stably expressing hERG. As to the method:
hERG Channel Inhibition Assay
The hERG K^+ channels were cloned in humans and stably expressed in a CHO (Chinese hamster ovary) cell line. CHOhERG cells were used for patch-clamp (voltage-clamp, whole-cell) experiments. Cells were stimulated by a voltage pattern to activate hERG channels and conduct IKhERG Currents (rapid delayed outward rectifier potassium current of the hERG channel). After the cells were stabilized for a few minutes, the amplitude and kinetics of IKhERG were recorded at a stimulation frequency of 0.1 Hz (6 bpm). Thereafter, the test compound was added to the preparation at increasing concentrations. For each concentration, an attempt was made to reach a steady-state effect, usually, this was achieved within 3-10 min at which time the next highest concentration was applied. The amplitude and kinetics of IKhERG are recorded in each concentration of the drug which were compared to the control values (taken as 100%). (references: Redfern W S, Carlsson L, Davis A S, Lynch W G, MacKenzie I, Palethorpe S, Siegl P K, Strang I, Sullivan A T, Wallis R, Camm A J, Hammond T G. 2003; Relationships between preclinical cardiac electrophysiology, clinical QT interval prolongation and torsade de pointes for a broad range of drugs: evidence for a provisional safety margin in drug development. Cardiovasc. Res. 58:32-45, Sanguinetti M C, Tristani-Firouzi M. 2006; hERG potassium channels and cardiac arrhythmia. Nature 440:463-469, Webster R, Leishman D, Walker D. 2002; Towards a drug concentration effect relationship for QT prolongation and torsades de pointes. Curr. Opin. Drug Discov. Devel. 5:116-26).
(In general: Block of hERG is tested as a sign of cardiac risk.)

T1 sequence (Q12809 whole entry): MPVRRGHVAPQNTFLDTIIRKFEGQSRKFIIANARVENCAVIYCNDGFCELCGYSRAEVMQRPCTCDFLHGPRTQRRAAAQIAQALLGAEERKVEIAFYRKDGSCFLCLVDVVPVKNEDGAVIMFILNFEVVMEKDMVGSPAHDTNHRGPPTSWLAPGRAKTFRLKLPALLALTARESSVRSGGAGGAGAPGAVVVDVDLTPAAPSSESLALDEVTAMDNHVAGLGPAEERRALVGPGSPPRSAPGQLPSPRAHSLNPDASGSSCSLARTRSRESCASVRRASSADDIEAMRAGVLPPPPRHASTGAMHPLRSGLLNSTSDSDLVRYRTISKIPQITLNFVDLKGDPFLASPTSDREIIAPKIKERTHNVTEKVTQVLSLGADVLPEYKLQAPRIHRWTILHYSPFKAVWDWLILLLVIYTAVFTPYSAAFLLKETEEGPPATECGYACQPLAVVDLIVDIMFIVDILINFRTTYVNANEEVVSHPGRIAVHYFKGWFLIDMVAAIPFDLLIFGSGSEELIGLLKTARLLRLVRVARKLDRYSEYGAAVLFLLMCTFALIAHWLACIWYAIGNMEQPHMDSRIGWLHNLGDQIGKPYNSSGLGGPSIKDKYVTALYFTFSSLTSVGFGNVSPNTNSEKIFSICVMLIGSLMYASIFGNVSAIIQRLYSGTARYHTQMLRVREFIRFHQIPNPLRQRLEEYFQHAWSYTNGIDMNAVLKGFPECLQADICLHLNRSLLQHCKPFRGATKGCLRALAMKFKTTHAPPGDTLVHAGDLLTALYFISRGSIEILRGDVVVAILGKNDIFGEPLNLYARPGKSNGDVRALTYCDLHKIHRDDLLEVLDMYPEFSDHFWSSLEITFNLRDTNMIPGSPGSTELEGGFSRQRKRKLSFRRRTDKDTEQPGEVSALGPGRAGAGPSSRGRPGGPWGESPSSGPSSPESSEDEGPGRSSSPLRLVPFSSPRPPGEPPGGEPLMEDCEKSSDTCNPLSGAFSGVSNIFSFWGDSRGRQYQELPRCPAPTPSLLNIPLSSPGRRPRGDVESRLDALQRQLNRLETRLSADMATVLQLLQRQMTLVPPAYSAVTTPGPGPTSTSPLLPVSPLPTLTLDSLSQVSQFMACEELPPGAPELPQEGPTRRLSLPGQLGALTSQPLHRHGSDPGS

Usually IC20 stands for the point of the concentration-response curve where the effect stands at 20%. Read a high IC20 as weaker potency. In general, IC50 refers to the midpoint of a concentration-inhibition curve. Take `C[C@@H]1CN(c2ccc(C#N)c3ncccc23)C[C@@H]2Cc3cc(N4C[C@@H]5CNCCN5C4=O)ccc3CN21` (single isomer, unassigned) [Example 17A]: the IC20 is > 10 µM and the IC50 was > 20 µM.
Consider `C[C@@H]1CN(c2ccc(C#N)c3ncccc23)C[C@@H]2Cc3cc(N[C@@H]4CNC[C@@H]4F)ccc3CN21` [Example 6, 5-[(4R,11aS)-4-methyl-9-[[(3R,4S)-4-fluoropyrrolidin-3-yl]amino]-1,3,4,6,11,11a-hexahydropyrazino[1,2-b]isoquinolin-2-yl]quinoline-8-carbonitrile], for which the 20% effect concentration (IC20) is > 10 µM and the IC50 is > 20 µM.
`C[C@@H]1CN(c2ccc(C#N)c3ncccc23)C[C@@H]2Cc3cc(OC[C@@H]4CCN4)ccc3CN21` [Example 12, 5-[(4R,11aS)-9-[[(2S)-azetidin-2-yl]methoxy]-4-methyl-1,3,4,6,11,11a-hexahydropyrazino[1,2-b]isoquinolin-2-yl]quinoline-8-carbonitrile]: it took 8.2 µM to reach the 20% level (IC20) and the concentration for half-maximal inhibition (IC50) is > 20 µM.
